Source: patent US12329967B2, “State-dependent peripheral neuromodulation to treat bladder dysfunction” (Duke University, priority 2015, dated 2025)

Tested on: bladder
Assay: in vivo cystometry (CMG) in urethane anesthetized rats, PGE2 model of bladder dysfunction
Parameters: species or system female Wistar rats
Conditions: intravesical infusion of PGE2 (100 μM), no stimulation, vs control rats (FIG. 5A)
Description: In the following examples, an accepted animal model of bladder dysfunction was used: the PGE2 (prostoglandin E2) model, in which installation of PGE2 into rats induces a hyperactive bladder response. In addition, a cat model of bladder dysfunction was used. […] Acute experiments were conducted in urethane (1.2 g/kg, SC) anesthetized female Wistar rats using in vivo cystometry (CMG). A PE-90 catheter was placed to measure bladder pressure and for intravesical infusion of saline and PGE2 (100 μM). Bipolar electrodes were placed on the external urethral sphincter (EUS) to measure electromyographic (EMG) activity and a bipolar nerve cuff electrode was placed on the sensory branch of the pudendal nerve for stimulation. In a subset of trials after PGE2 infusion, electrical stimulation of the sensory branch of the pudendal nerve was delivered at different amplitudes (0.5-10× EUS reflex threshold, T) and frequencies (1-50 Hz). T may be determined as follows: a low frequency electrical signal, typically 1 Hz, is applied and the intensity of stimulation is increased (either by increasing the voltage or the current of the signal, preferably the current) until the pudendal nerve stimulation pulse produces a reflex EMG response in the EUS.

CCCCC[C@H](O)/C=C/[C@H]1[C@H](O)CC(=O)[C@@H]1C/C=C\CCCC(=O)O [PGE2, prostoglandin E2]
changes in bladder capacity: reduces bladder capacity
